# pIC50: −log10 of the molar value.
# Biological target: T1, Tyrosine-protein kinase ITK/TSK (Homo sapiens, UniProt Q08881)
# T1 sequence (Q08881 whole entry): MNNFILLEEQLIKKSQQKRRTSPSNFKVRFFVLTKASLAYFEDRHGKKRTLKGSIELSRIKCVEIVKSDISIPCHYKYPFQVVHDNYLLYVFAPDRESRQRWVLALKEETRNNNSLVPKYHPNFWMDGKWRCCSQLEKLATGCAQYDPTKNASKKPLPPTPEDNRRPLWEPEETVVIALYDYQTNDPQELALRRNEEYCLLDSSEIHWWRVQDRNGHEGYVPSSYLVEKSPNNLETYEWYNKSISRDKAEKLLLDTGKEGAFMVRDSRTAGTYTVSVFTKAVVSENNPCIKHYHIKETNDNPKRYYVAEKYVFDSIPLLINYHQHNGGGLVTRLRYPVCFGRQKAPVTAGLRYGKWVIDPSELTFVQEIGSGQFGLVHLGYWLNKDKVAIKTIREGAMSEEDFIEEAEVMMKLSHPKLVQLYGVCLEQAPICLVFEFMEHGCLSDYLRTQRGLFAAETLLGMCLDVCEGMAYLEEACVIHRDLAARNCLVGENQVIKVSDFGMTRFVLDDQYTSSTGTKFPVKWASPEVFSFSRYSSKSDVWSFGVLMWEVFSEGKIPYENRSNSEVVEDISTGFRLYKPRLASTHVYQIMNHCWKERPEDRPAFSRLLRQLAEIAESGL
# Assay: ITK Target Modulation PLC-gamma Assay: Compounds were serially diluted into DMSO, and then into media to concentrations 10× that of the final assay concentration. Compounds were then added to the cells with the final assay DMSO concentration being 0.1%. Cells were incubated for 1 hour at 37° C. Following compound incubation, αCD3 Dynabeads were added at 1 bead/cell to each assay well and incubated at 37° C. for 7 minutes. Unstimulated control wells received media only. The plate was then placed on a 96-well magnetic plate for an additional 60 seconds (total assay stimulation time equals 8 minutes). The plate was then dumped and gently patted dry on a paper towel. 50 ul of complete Meso Scale Discovery (MSD) Lysis buffer was then added to each well. Samples were assayed for phospho-PLCγ1 using Meso Scale Discovery technology.
row,Compound,pIC50
1,C=CC(=O)Nc1cc(-c2cnc3[nH]cc(-c4ccncc4)c3c2)cc(C(F)(F)F)c1,> 6.00
2,Cc1cc(-c2c[nH]c3ncc(-c4cccc(/C=C(\C#N)C(N)=O)c4)cc23)ccn1,5.30 to 6.00
3,C=CC(=O)Nc1cc(OC)cc(-c2cnc3[nH]cc(-c4ccncc4)c3c2)c1,> 6.00
4,C=CC(=O)Nc1cc(-c2cnc3[nH]cc(-c4ccnc(OC)c4)c3c2)cc(-c2cnn(C)c2)c1,> 6.00
5,C=CC(=O)Nc1cccc(-c2cnc3[nH]cc(-c4cn(CC5CC5)c(=O)c5[nH]ccc45)c3c2)c1,5.30 to 6.00
6,C=CC(=O)Nc1cccc(-c2cnc3[nH]cc(-c4cc(NC)ncn4)c3c2)c1,5.30 to 6.00
7,C=CC(=O)Nc1cc(-c2cnc3[nH]cc(-c4ccc(OC)nc4)c3c2)cc(C(F)(F)F)c1,5.30 to 6.00
8,C=CC(=O)Nc1cccc(-c2cnc3[nH]cc(-c4ccc(=O)n(CC5CC5)c4)c3c2)c1,> 6.00
9,C=CC(=O)Nc1cc(-c2cnc3[nH]cc(-c4ccnc(OC)c4)c3c2)cc(C(O)(CC)CC)c1,5.30 to 6.00
10,C=CC(=O)Nc1cccc(-c2cnc3[nH]cc(-c4cc(C)nc(OC)c4)c3c2)c1,5.30 to 6.00

# Now from value to compound:
row,pIC50,Compound
1,> 6.00,C=CC(=O)Nc1cccc(-c2cnc3[nH]cc(-c4ccnc(F)c4)c3c2)c1
2,> 6.00,C=CC(=O)Nc1cccc(-c2cnc3[nH]cc(-c4ccncn4)c3c2)c1
3,5.30 to 6.00,C=CC(=O)Nc1cccc(-c2cnc3[nH]cc(-c4cccc(C#N)c4)c3c2)c1
4,5.30 to 6.00,C=CC(=O)Nc1cccc(-c2cnc3[nH]cc(-c4ccnc5ccccc45)c3c2)c1
5,> 6.00,C=CC(=O)Nc1cccc(-c2cnc3[nH]cc(-c4ccnc(NC)c4)c3c2)c1
6,5.30 to 6.00,C=CC(=O)Nc1cccc(-c2cnc3[nH]cc(-c4cccc5[nH]ccc45)c3c2)c1
7,> 6.00,C=CC(=O)Nc1cccc(-c2cnc3[nH]cc(-c4ccnc(NC)n4)c3c2)c1
8,5.30 to 6.00,C=CC(=O)Nc1cccc(-c2cnc3[nH]cc(-c4cccc5ncccc45)c3c2)c1
9,5.30 to 6.00,C=CC(=O)Nc1cccc(-c2cnc3[nH]cc(-c4ccccc4C)c3c2)c1
10,5.30 to 6.00,C=CC(=O)Nc1cccc(-c2cnc3[nH]cc(-c4cccc(OC)c4)c3c2)c1
11,< 5.30,C=CC(=O)Nc1cccc(-c2cnc3[nH]cc(-c4cccc5occc45)c3c2)c1

# Biological target: T1, Tyrosine-protein kinase ITK/TSK
# Assay: ITK Inhibitor Binding Kinetics: This assay is based on the binding of a proprietary, Alexa Fluor 647-labeled, ATP-competitive kinase inhibitor (kinase tracer-236) to the ITK expression construct in the presence of a Europium-conjugated antibody, resulting in a FRET (fluorescence resonance energy transfer) signal. Displacement of the kinase tracer by compound results in a lower emission ratio upon excitation of the Europium chelate. Candidate compounds are designed as potential irreversible inhibitors of ITK, capable of ligating to an active site cysteine residue resulting in time dependent covalent binding. The time dependent nature of irreversible inhibition is investigated by performing the binding assay with and without a pre-incubation of compound and ITK.
row,Compound,pIC50
1,C=CC(=O)NC1CN(c2cnc3[nH]cc(-c4ccnc(C#N)c4)c3c2)C1,> 6.00
2,N#C/C(=C\c1cccc(-c2cnc3[nH]cc(-c4ccc(F)nc4)c3c2)c1)C(N)=O,> 6.00
3,COc1cc(/C=C(\C#N)C(N)=O)cc(-c2cnc3[nH]cc(-c4ccnc(OC)c4)c3c2)c1,> 6.00
4,C=CC(=O)Nc1cncc(-c2cnc3[nH]cc(-c4cn(C)c(=O)c5[nH]ccc45)c3c2)c1,> 6.00
5,C=CC(=O)Nc1cc(-c2cnc3[nH]cc(-c4ccnc(F)c4)c3c2)cc(C(F)(F)F)c1,> 6.00
6,C=CC(=O)Nc1cccc(-c2cnc3[nH]cc(-c4cncc(Cl)c4)c3c2)c1,> 6.00
7,C=CC(=O)Nc1cccc(-c2cnc3[nH]cc(-c4ccc(=O)n(CC(C)(C)O)c4)c3c2)c1,> 6.00
8,C=CC(=O)Nc1cc(-c2cnc3[nH]cc(-c4cccnc4)c3c2)cc(C(F)(F)F)c1,> 6.00
9,C=CC(=O)Nc1cccc(-c2cnc3[nH]cc(-c4cc(C)ncn4)c3c2)c1,> 6.00
10,C=CC(=O)Nc1cc(-c2cnc3[nH]cc(-c4ccc(F)nc4)c3c2)cc(C(F)(F)F)c1,> 6.00
11,C=CC(=O)Nc1cccc(-c2cnc3[nH]cc(-c4ccc(OCC5CC5)nc4)c3c2)c1,> 6.00
12,C=C(C)C(=O)Nc1cc(-c2cnc3[nH]cc(-c4ccnc(OC)c4)c3c2)cc(-c2cnn(C)c2)n1,> 6.00
13,C=CC(=O)Nc1cc(C#N)cc(-c2cnc3[nH]cc(-c4ccncc4)c3c2)c1,> 6.00
14,C=CC(=O)Nc1cccc(-c2cnc3[nH]cc(-c4cc(OC)nc(C(F)(F)F)c4)c3c2)c1,< 6.00
15,C=CC(=O)Nc1cccc(-c2cnc3[nH]cc(-c4ccc(=O)n(C)c4)c3c2)c1,> 6.00
16,N#C/C(=C\c1cccc(-c2cnc3[nH]cc(-c4ccncn4)c3c2)c1)C(N)=O,> 6.00
17,C=CC(=O)Nc1cccc(-c2cnc3[nH]cc(-c4cc(C)cc(OC)n4)c3c2)c1,> 6.00
18,COC/C=C/C(=O)Nc1cccc(-c2cnc3[nH]cc(-c4ccnc(OC)c4)c3c2)c1,> 6.00

# Second part, the compound after the results:
row,pIC50,Compound
1,> 6.00,C=CC(=O)Nc1cccc(-c2cnc3[nH]cc(-c4cncc5[nH]ccc45)c3c2)c1
2,> 6.00,C=CC(=O)Nc1cccc(-c2cnc3[nH]cc(-c4ccnc(C)c4)c3c2)c1
3,> 6.00,C=CC(=O)Nc1cccc(-c2cnc3[nH]cc(-c4ccc(F)nc4)c3c2)c1
4,> 6.00,C=CC(=O)Nc1cccc(-c2cnc3[nH]cc(-c4ccc(NC)nc4)c3c2)c1
5,> 6.00,C=CC(=O)Nc1cccc(-c2cnc3[nH]cc(-c4cccc5ccccc45)c3c2)c1
6,> 6.00,C=CC(=O)Nc1cccc(-c2cnc3[nH]cc(-c4ccnc5[nH]ccc45)c3c2)c1
7,> 6.00,C=CC(=O)Nc1cccc(-c2cnc3[nH]cc(-c4cccc5cnccc45)c3c2)c1
8,> 6.00,C=CC(=O)Nc1cccc(-c2cnc3[nH]cc(-c4cc(OC)ncc4C)c3c2)c1
9,> 6.00,C=CC(=O)Nc1cccc(-c2cnc3[nH]cc(-c4ccc(OC)nc4)c3c2)c1
10,> 6.00,C=CC(=O)Nc1cccc(-c2cnc3[nH]cc(-c4cccnc4)c3c2)c1

# Source: ChEMBL document CHEMBL5725323, “Heterocyclic ITK inhibitors for treating inflammation and cancer” (2017)
